Results: paper PMC8179208, “Unravelling the mechanisms controlling heme supply and demand” (Proceedings of the National Academy of Sciences of the …, 2021)

Biological target: T1, mAPXmEGFP (Glycine max, UniProt Q43758, K14D/E112K)
T1 construct: gene apx1; monomeric K14D/E112K APX fused to mEGFP reporter; N-terminal His tag, pLEICS-45; pea, Pisum sativum, possible
T1 sequence (Q43758 1-250 K14D/E112K): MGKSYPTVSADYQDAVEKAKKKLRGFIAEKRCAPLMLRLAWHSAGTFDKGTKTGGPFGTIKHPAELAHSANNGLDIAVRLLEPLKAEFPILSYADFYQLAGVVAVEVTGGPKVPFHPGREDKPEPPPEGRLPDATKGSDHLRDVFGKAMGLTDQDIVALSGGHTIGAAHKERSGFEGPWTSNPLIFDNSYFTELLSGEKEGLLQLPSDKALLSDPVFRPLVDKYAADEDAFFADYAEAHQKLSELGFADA
Assay: time-correlated single-photon counting fluorescence lifetime titration of apo protein, […] binding model
Details: 37 °C, 10 mM potassium phosphate pH 7, 1 uM protein

Structure (SMILES): C=CC1=C(C)C2=Cc3c(C=C)c(C)c4[n]3[Fe]([Cl])[n]3c(c(C)c(CCC(=O)O)c3=CC3=NC(=C4)C(C)=C3CCC(=O)O)=CC1=N2 [heme]
- Kd: 22 nM
